Data set [1] concerns HIV-1 virus strain RF in CEM-SS cells. In words: HIV-1 cytopathicity assay. The class given is cell-based. The conditions noted are these: HIV-1RF. In general terms: Damage to the host cells serves as the signal in cytopathic effect assays.
The target in data set [2] is RNase H-deficient p66^EQ/p51 HIV-1 RT (Human immunodeficiency virus type 1 group M subtype B, UniProt P04585, E1065Q). In words: DNA-dependent DNA polymerase assay, RNase H mutant p66^E478Q/p51. As to conditions: inhibitor 20 µM. The class given is biochemical.
The target of data set [3] is RNase H-deficient p66^DA/p51 HIV-1 RT (Human immunodeficiency virus type 1 group M subtype B, UniProt P04585, D1136A). In words: DNA-dependent DNA polymerase assay, RNase H mutant p66^D549A/p51. The conditions noted are these: inhibitor 20 µM. The class given is biochemical.

Marks after values point to notes of the source that are not given here.

The record followed here is publication PMC3133734 (Journal of medicinal chemistry, 2011).

For `CCN(CC)CC(C)(O)[C@H]1CCc2c(c(C)cc(O)c(=O)c2O)C1` (mixture of isomers) [Compound 3, 2-(2-Diethylamino-1-hydroxy-1-methyl-ethyl)-5,7-dihydroxy-9-methyl-1,2,3,4-tetrahydrobenzocyclohepten-6-one], the “protection against the cytopathic effect of HIV (in words)” value (from here on “protection against the cytopathic effect”) in data set [1] is on record as “slight protection against cytopathicity”. The “Viral Replication EC50 column, protective effect class” value in data set [1] (highest concentration 50 µM) was less than 50% ^c.

`CCS(=O)(=O)CC(C)(O)[C@H]1CCc2c(c(C)cc(O)c(=O)c2O)C1` (mixture of isomers) [Compound 9, 2-(2-Ethanesulfonyl-1-hydroxy-1-methyl-ethyl)-5,7-dihydroxy-9-methyl-1,2,3,4-tetrahydrobenzocyclohepten-6-one]: the “protection against the cytopathic effect” value in data set [1] is listed as “slight protection against cytopathicity”.

Turning to `Cc1cc(O)c(=O)c(O)c2c1C[C@@H](C(C)(O)CNc1ccccc1)CC2` (mixture of isomers) [Compound 5, 5,7-Dihydroxy-2-(1-hydroxy-1-methyl-2-phenylamino-ethyl)-9-methyl-1,2,3,4-tetrahydrobenzocyclohepten-6-one], the “inhibition of DNA-dependent DNA polymerase activity (in words)” value is “significantly and consistently inhibited” in data set [2]; “significantly and consistently inhibited” in data set [3]. Further, the “protection against the cytopathic effect” value in data set [1] is listed as “protection against the cytopathicity of the virus”. Regarding `Cc1cc(O)c(=O)c(O)c2c1C[C@@H](C(C)(O)CN1CCCCC1)CC2` (mixture of isomers) [Compound 1, 5,7-Dihydroxy-2-(1-hydroxy-1-methyl-2-piperidin-1-yl-ethyl)-9-methyl-1,2,3,4-tetrahydro benzocyclohepten-6-one], in data set [1], the “In vitro therapeutic index (CC50/EC50)” value is listed as 4.9 and the “protection against the cytopathic effect” value is “protection against the cytopathicity of the virus”.

For `CCSCC(C)(O)[C@H]1CCc2c(c(C)cc(O)c(=O)c2O)C1` (mixture of isomers) [Compound 6, 2-(2-Ethylsulfanyl-1-hydroxy-1-methyl-ethyl)-5,7-dihydroxy-9-methyl-1,2,3,4-tetrahydrobenzocyclohepten-6-one], the “protection against the cytopathic effect” value in data set [1] is “slight protection against cytopathicity”. Same read-out and setting: next, `Cc1cc(O)c(=O)c(O)c2c1CC(C(C)(O)CO)CC2` (stereo not drawn) [Compound 12, 2-(1,2-Dihydroxy-1-methyl-ethyl)-5,7-dihydroxy-9-methyl-1,2,3,4-tetrahydrobenzocyclohepten-6-one]: “no protection against virus cytopathicity”; `Cc1cc(O)c(=O)c(O)c2c1C[C@@H](C(C)O)CC2` (mixture of isomers) [Compound 13, 5,7-Dihydroxy-2-(1-hydroxy-ethyl)-9-methyl-1,2,3,4-tetrahydrobenzocyclohepten-6-one]: “protection against the cytopathicity of the virus”. As for `Cc1cc(O)c(=O)c(O)c2c1C[C@@H](C(C)(O)Cn1ccnc1)CC2` (mixture of isomers) [Compound 2, 5,7-Dihydroxy-2-(1-hydroxy-2-imadazol-1-yl-1-methyl-ethyl)-9-methyl-1,2,3,4-tetrahydro benzocyclohepten-6-one], the “protection against the cytopathic effect” value in data set [1] was “protection against the cytopathicity of the virus”.

In the case of `C=C(C)[C@H]1CCc2c(c(C)cc(O)c(=O)c2O)C1` [Manicol, 5,7-dihydroxy-2-isopropenyl-9-methyl-1,2,3,4-tetrahydro-benzocyclohepten-6-one, reference compound], the “protection against the cytopathic effect” value in data set [1] is reported as “no protection against the cytopathic effect of HIV”. On the same count and under the same terms, next, `Cc1cc(O)c(=O)c(O)c2c1C[C@@H](C(C)(O)CNCc1ccccc1F)CC2` (mixture of isomers) [Compound 4, 2-[2-(2-Fluoro-benzylamino)-1-hydroxy-1-methyl-ethyl]-5,7-dihydroxy-9-methyl-1,2,3,4-tetrahydrobenzocyclohepten-6-one]: “no protection against virus cytopathicity”. Still for that read-out and setting: as for `Cc1cc(O)c(=O)c(O)c2c1C[C@@H](C(C)NCc1ccccc1)CC2` (mixture of isomers) [Compound 14, 2-(1-Benzylamino-ethyl)-5,7-Dihydroxy-9-methyl-1,2,3,4-tetrahydrobenzocyclohepten-6-one], the entry is “protection against the cytopathicity of the virus”; as for “2,7-dihydroxy-4-isopropyl-cyclohepta-2,4,6-triene [β-Thujaplicinol, reference compound]”, “no protection against the cytopathic effect of HIV”. Same read-out and setting: next, `Cc1cc(O)c(=O)c(O)c2c1C[C@@H](C(C)(O)CSCc1ccccc1)CC2` (mixture of isomers) [Compound 8, 2-(2-Benzylsulfanyl-1-hydroxy-1-methyl-ethyl)-5,7-dihydroxy-9-methyl-1,2,3,4-tetrahydrobenzocyclohepten-6-one]: “protection against the cytopathicity of the virus”; `Cc1cc(O)c(=O)c(O)c2c1C[C@@H](C(C)(O)CSc1ccccc1)CC2` (mixture of isomers) [Compound 7, 5,7-Dihydroxy-2-(1-hydroxy-1-methyl-2-phenylsulfanyl-ethyl)-9-methyl-1,2,3,4-tetrahydrobenzocyclohepten-6-one]: “protection against the cytopathicity of the virus”.
